Laboratory results as given in US20240262819A1, “NOVEL COMPOUNDS HAVING INHIBITORY ACTIVITY AGAINST GLUCOSYLCERAMIDE SYNTHASE OR PHARMACEUTICALLY ACCEPTABLE SALT THEREOF, PROCESSES FOR PREPARING THE SAME, AND PHARMACEUTICAL COMPOSITIONS COMPRISING THE SAME” (YUHAN CORPORATION, priority 2021, published 2024).
pIC50: −log10 of the molar value. Read-outs that look alike come from different tables or passages of the source.

Columns and labels:
[1] = test system: GM1 production in Jurkat cells; experiment: cells; format: cell-based
[2] = Evaluation of blood-brain barrier (BBB) permeability through oral administration; format: in vivo, mice; settings: mice, oral, dose 30 mg/kg, 4 hr; for Kp at 4 h / concentration at 4 h: mouse, in vivo; for Kp at 4 h: read-out: Mean brain-plasma drug ratio at 4 hr
Procedure, shortened: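 Mice dosed orally at 10 or 30 mg/10 ml/kg, suspended in 0.5% methyl cellulose with 0.2% Tween 80. Plasma and forebrain homogenate taken 4 hours post-dose, drug measured by LC-MS/MS; brain/plasma ratio calculated from tissue concentrations.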

[3] = biological target: glucosylceramide synthase (GCS) (Homo sapiens (Human), UniProt Q16739); experiment: Evaluation of inhibitory activities against GCS (A549 cell lysate, NBD C6-ceramide, HPLC); format: biochemical
Procedure, shortened: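 GCS activity in A549 cell lysate (50 mM HEPES, pH 7.3) with NBD C6-ceramide, reacted 90 min at 37 °C. Lipids were chloroform/methanol-extracted and separated by normal-phase HPLC with fluorescence detection (ex 470/em 530 nm). GlcCer fraction of peak area was normalized between DMSO and ibiglustat, and IC50 obtained by curve fitting.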

[4] = % GCS activity, A549 cell lysate, 37° C. for 90 minutes, read-out: IC50
[5] = read-out: Mean drug concentrations in brain tissue at 4 hr
[6] = read-out: Mean drug concentrations in plasma at 4 hr

glucosylceramide synthase (GCS), sequence (Q16739 whole entry): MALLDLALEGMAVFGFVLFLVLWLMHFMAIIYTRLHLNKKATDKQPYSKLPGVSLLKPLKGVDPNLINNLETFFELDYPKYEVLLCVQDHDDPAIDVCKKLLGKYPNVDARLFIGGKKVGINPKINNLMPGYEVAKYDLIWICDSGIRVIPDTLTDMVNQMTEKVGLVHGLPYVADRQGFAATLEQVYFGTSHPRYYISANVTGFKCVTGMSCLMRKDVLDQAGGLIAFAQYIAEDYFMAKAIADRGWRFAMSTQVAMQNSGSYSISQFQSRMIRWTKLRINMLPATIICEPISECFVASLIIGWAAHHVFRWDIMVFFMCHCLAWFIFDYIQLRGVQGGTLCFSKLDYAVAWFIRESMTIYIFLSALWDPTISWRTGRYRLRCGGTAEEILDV

| Compound | pIC50 ([1]; read-out: IC50) | Mean brain-plasma drug ratio at 4 hr [2] | Mean drug concentrations in brain tissue at 4 hr [2] [ng/g] | Mean drug concentrations in plasma at 4 hr [2] [ng/mL] | pIC50 [3, 4] | pIC50 ([1]; Homo sapiens, Jurkat, 72 h) | Kp at 4 h [2] | concentration at 4 h [2, 5] [ng/g] | concentration at 4 h [2, 6] [ng/mL] | pIC50 [3] |
| --- | --- | --- | --- | --- | --- | --- | --- | --- | --- | --- |
| COc1ccc(-c2ccc3c(c2)CCC(C)(C)[C@H]3NC(=O)O[C@@H]2CN3CCC2CC3)c(F)c1 [Example 151, (S)-quinuclidin-3-yl((R)-6-(2-fluoro-4-methoxyphenyl)-2,2-dimethyl-1,2,3,4-tetrahydronaphthalen-1-yl) carbamate] | 8.28 | 2.04 | 2441.3 | 1196.4 | 9.31 |  |  |  |  |  |
| CCc1cccc(-c2ccc3c(c2)CCC(C)(C)[C@H]3NC(=O)O[C@@H]2CN3CCC2CC3)c1 [Example 158, (S)-quinuclidin-3-yl((R)-6-(3-ethylphenyl)-2,2-dimethyl-1,2,3,4-tetrahydronaphthalen-1-yl)carbamate] |  |  |  |  |  | 8.96 | 3.67 | 3720 | 1020 | 9.35 |
| CC(C)Oc1ccc(-c2ccc3c(c2)CCC(C)(C)[C@H]3NC(=O)O[C@@H]2CN3CCC2CC3)cc1F [Example 161, (S)-quinuclidin-3-yl((R)-6-(3-fluoro-4-isopropoxyphenyl)-2,2-dimethyl-1,2,3,4-tetrahydronaphthalen-1-yl)carbamate] |  |  |  |  |  | 8.35 | 3.97 | 4840 | 1240 | 8.13 |
| CC(C)c1cccc(-c2ccc3c(c2)CCC(C)(C)[C@H]3NC(=O)O[C@@H]2CN3CCC2CC3)c1 [Example 162, (S)-quinuclidin-3-yl((R)-6-(3-isopropylphenyl)-2,2-dimethyl-1,2,3,4-tetrahydronaphthalen-1-yl)carbamate] |  |  |  |  |  | 8.85 | 3.71 | 3570 | 967 | 8.12 |
| CC(C)Oc1cccc(-c2ccc3c(c2)CCC(C)(C)[C@H]3NC(=O)O[C@@H]2CN3CCC2CC3)c1 [Example 165, (S)-quinuclidin-3-yl((R)-6-(3-isopropoxyphenyl)-2,2-dimethyl-1,2,3,4-tetrahydronaphthalen-1-yl)carbamate] |  |  |  |  |  | 8.60 | 2.83 | 2400 | 852 | 9.26 |
| CC(C)Oc1ccc(-c2ccc3c(c2)CCC(C)(C)[C@H]3NC(=O)O[C@@H]2CN3CCC2CC3)c(Cl)c1 [Example 168, (S)-quinuclidin-3-yl((R)-6-(2-chloro-4-isopropoxyphenyl)-2,2-dimethyl-1,2,3,4-tetrahydronaphthalen-1-yl)carbamate] |  |  |  |  |  | 9.64 | 1.18 | 3370 | 2890 | 9.73 |
| CCCc1ccc(-c2cc3c(cc2F)[C@H](NC(=O)O[C@@H]2CN4CCC2CC4)C(C)(C)CC3)cc1 [Example 171, (S)-quinuclidin-3-yl((R)-7-fluoro-2,2-dimethyl-6-(4-propylphenyl)-1,2,3,4-tetrahydronaphthalen-1-yl)carbamate] |  |  |  |  |  | 8.85 | 3.88 | 2900 | 748 | 9.72 |
| CCOc1ccc(-c2cc3c(cc2F)[C@H](NC(=O)O[C@@H]2CN4CCC2CC4)C(C)(C)CC3)cc1 [Example 176, (S)-quinuclidin-3-yl((R)-6-(4-ethoxyphenyl)-7-fluoro-2,2-dimethyl-1,2,3,4-tetrahydronaphthalen-1-yl)carbamate] |  |  |  |  |  | 8.68 | 3.58 | 4860 | 1360 | 9.62 |
| COc1c(C)cc(-c2cc3c(cc2F)[C@H](NC(=O)O[C@@H]2CN4CCC2CC4)C(C)(C)CC3)cc1C [Example 180, (S)-quinuclidin-3-yl((R)-7-fluoro-6-(4-methoxy-3,5-dimethylphenyl)-2,2-dimethyl-1,2,3,4-tetrahydronaphthalen-1-yl)carbamate] |  |  |  |  |  | 8.10 | 1.34 | 1510 | 1140 | 8.88 |
| CCCOc1c(C)cc(-c2cc3c(cc2F)[C@H](NC(=O)O[C@@H]2CN4CCC2CC4)C(C)(C)CC3)cc1C [Example 181, (S)-quinuclidin-3-yl((R)-6-(3,5-dimethyl-4-propoxyphenyl)-7-fluoro-2,2-dimethyl-1,2,3,4-tetrahydronaphthalen-1-yl)carbamate] |  |  |  |  |  | 8.15 | 1.65 | 848 | 510 | 8.73 |
| CC(C)Oc1ccc(-c2cc3c(cc2F)[C@H](NC(=O)O[C@@H]2CN4CCC2CC4)C(C)(C)CC3)cc1Cl [Example 193, (S)-quinuclidin-3-yl((R)-6-(3-chloro-4-isopropoxyphenyl)-7-fluoro-2,2-dimethyl-1,2,3,4-tetrahydronaphthalen-1-yl)carbamate] |  |  |  |  |  | 8.17 | 3.46 | 3020 | 871 | 9.11 |
| COc1ccc(-c2cc3c(cc2F)[C@H](NC(=O)O[C@@H]2CN4CCC2CC4)C(C)(C)CC3)c(F)c1 [Example 194, (S)-quinuclidin-3-yl((R)-7-fluoro-6-(2-fluoro-4-methoxyphenyl)-2,2-dimethyl-1,2,3,4-tetrahydronaphthalen-1-yl)carbamate] |  |  |  |  |  | 8.34 | 1.67 | 2100 | 1260 | 9.39 |
| CC(C)Oc1ccc(-c2cc3c(cc2F)[C@H](NC(=O)O[C@@H]2CN4CCC2CC4)C(C)(C)CC3)cc1 [Example 197, (S)-quinuclidin-3-yl((R)-7-fluoro-6-(4-isopropoxyphenyl)-2,2-dimethyl-1,2,3,4-tetrahydronaphthalen-1-yl)carbamate] |  |  |  |  |  | 9.03 | 3.56 | 6690 | 1880 | 9.70 |
| CC(C)Oc1ccc(-c2cc3c(cc2F)[C@H](NC(=O)O[C@@H]2CN4CCC2CC4)C(C)(C)CC3)cc1F [Example 198, (S)-quinuclidin-3-yl((R)-7-fluoro-6-(3-fluoro-4-isopropoxyphenyl)-2,2-dimethyl-1,2,3,4-tetrahydronaphthalen-1-yl)carbamate] |  |  |  |  |  | 8.49 | 3.46 | 5120 | 1480 | 9.47 |
| (S)-quinuclidin-3-yl((R)-6-(2-chloro-4-isopropoxyphenyl)-7-fluoro-2,2-dimethyl-1,2,3,4-tetrahydronaphthalen-1-yl) carbamate [Example 199] | 10.52 | 1.165 | 2689 | 2327.6 | 9.72 |  |  |  |  |  |
| (S)-quinuclidin-3-yl((R)-7-fluoro-2,2-dimethyl-6-(4-propoxyphenyl)-1,2,3,4-tetrahydronaphthalen-1-yl) carbamate [Example 177] | 9.37 | 5.444 | 4788.9 | 880.7 | 9.60 |  |  |  |  |  |
